Laboratory results as given in article PMC4447944 (The Journal of Biological Chemistry, 2015).
pIC50: −log10 of the molar value.

What was measured:
hADORA3 = biological target: T1, hADORA3 (Homo sapiens, UniProt P0DMS8); assay: β-arrestin Antagonist (Eurofins-CEREP); details: read-out: % Effect, Inhibition
T1 sequence (P0DMS8 1-318): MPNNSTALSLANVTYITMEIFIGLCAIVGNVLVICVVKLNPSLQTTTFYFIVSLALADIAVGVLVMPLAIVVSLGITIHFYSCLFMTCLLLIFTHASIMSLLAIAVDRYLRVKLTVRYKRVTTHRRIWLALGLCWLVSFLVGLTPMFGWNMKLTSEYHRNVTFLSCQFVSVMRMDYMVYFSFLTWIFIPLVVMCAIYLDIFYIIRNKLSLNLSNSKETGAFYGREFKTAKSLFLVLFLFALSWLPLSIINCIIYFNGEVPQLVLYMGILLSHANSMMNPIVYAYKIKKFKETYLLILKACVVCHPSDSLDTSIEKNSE

hTNK1 = biological target: T2, hTNK1 (Homo sapiens, UniProt Q13470); assay: KINOMEscan; assay type: binding
T2 construct: purchased DiscoverX

hFGFR4 = biological target: T3, hFGFR4 (Homo sapiens, UniProt P22455); assay: KINOMEscan; assay type: binding
T3 construct: purchased DiscoverX

hSNARK = biological target: T4, hSNARK (Homo sapiens, UniProt Q9H093); assay: KINOMEscan; assay type: binding
T4 construct: purchased DiscoverX (KINOMEscan platform)

hGCN2(Kin.Dom.2,S808G) = biological target: T5, hGCN2(Kin.Dom.2,S808G) (Homo sapiens, UniProt Q9P2K8, S808G); assay: KINOMEscan; assay type: binding
T5 construct: hGCN2(Kin.Dom.2,S808G); purchased DiscoverX

hSTK33 = biological target: T6, hSTK33 (Homo sapiens, UniProt Q9BYT3); assay: KINOMEscan; assay type: binding
T6 construct: purchased DiscoverX (KINOMEscan platform)

hADRα1A = biological target: T7, hADRα1A (Homo sapiens, UniProt P35348); assay: Calcium Mobilization Agonist (Eurofins-CEREP); details: @ 13.3 μM
T7 sequence (P35348 1-466): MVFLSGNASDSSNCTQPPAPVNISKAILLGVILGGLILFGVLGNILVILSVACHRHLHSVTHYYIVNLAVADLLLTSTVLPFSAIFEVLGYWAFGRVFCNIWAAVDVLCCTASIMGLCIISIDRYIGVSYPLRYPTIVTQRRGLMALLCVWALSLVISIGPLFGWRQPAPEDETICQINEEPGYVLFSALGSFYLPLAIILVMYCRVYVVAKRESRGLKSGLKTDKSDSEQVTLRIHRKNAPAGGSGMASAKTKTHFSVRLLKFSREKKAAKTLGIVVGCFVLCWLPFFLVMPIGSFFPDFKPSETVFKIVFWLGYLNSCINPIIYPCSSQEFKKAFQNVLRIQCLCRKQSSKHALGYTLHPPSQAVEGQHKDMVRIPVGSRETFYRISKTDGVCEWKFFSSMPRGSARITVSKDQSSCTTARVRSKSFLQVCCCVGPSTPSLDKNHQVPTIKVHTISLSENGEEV

hCAMK2D = biological target: T8, hCAMK2D (Homo sapiens, UniProt Q13557); assay: KINOMEscan; assay type: binding
T8 construct: purchased DiscoverX

hMEK4 = biological target: T9, hMEK4 (Homo sapiens, UniProt P45985); assay: KINOMEscan; assay type: binding
T9 construct: purchased DiscoverX

hAKT2 = biological target: T10, hAKT2 (Homo sapiens, UniProt P31751); assay: KINOMEscan; assay type: binding
T10 construct: purchased DiscoverX

hLTK = biological target: T11, hLTK (Homo sapiens, UniProt P29376); assay: KINOMEscan; assay type: binding
T11 construct: purchased DiscoverX (KINOMEscan platform)

hFGFR1 = biological target: T12, hFGFR1 (Homo sapiens, UniProt P11362); assay: KINOMEscan; assay type: binding
T12 construct: purchased DiscoverX

hABL1-p = biological target: T13, hABL1-p (Homo sapiens, UniProt P00519); assay: KINOMEscan; assay type: binding
T13 construct: purchased DiscoverX (KINOMEscan platform)

hEPHB2 = biological target: T14, hEPHB2 (Homo sapiens, UniProt P29323); assay: KINOMEscan; assay type: binding
T14 construct: purchased DiscoverX

hCAMK2A = biological target: T15, hCAMK2A (Homo sapiens, UniProt Q9UQM7); assay: KINOMEscan; assay type: binding
T15 construct: purchased DiscoverX

hACVR1B = biological target: T16, hACVR1B (Homo sapiens, UniProt P36896); assay: KINOMEscan; assay type: binding
T16 construct: purchased DiscoverX (KINOMEscan platform)

hTAOK3 = biological target: T17, hTAOK3 (Homo sapiens, UniProt Q9H2K8); assay: KINOMEscan; assay type: binding
T17 construct: purchased DiscoverX

hADCK3 = biological target: T18, hADCK3 (Homo sapiens, UniProt Q8NI60); assay: KINOMEscan; assay type: binding
T18 construct: purchased DiscoverX

hITK = biological target: T19, hITK (Homo sapiens, UniProt Q08881); assay: KINOMEscan; assay type: binding
T19 construct: purchased DiscoverX (KINOMEscan panel)

hDCAMKL3 = biological target: T20, hDCAMKL3 (Homo sapiens, UniProt Q9C098); assay: KINOMEscan; assay type: binding
T20 construct: purchased DiscoverX (KINOMEscan platform)

hBLK = biological target: T21, hBLK (Homo sapiens, UniProt P51451); assay: KINOMEscan; assay type: binding
T21 construct: purchased DiscoverX

hERN1 = biological target: T22, hERN1 (Homo sapiens, UniProt O75460); assay: KINOMEscan; assay type: binding
T22 construct: purchased DiscoverX

hABL1(pF317L) = biological target: T23, hABL1(pF317L) (Homo sapiens, UniProt P00519, F317L); assay: KINOMEscan; assay type: binding
T23 construct: purchased DiscoverX (KINOMEscan platform)

hRET(V804L) = biological target: T24, hRET(V804L) (Homo sapiens, UniProt P07949, V804L); assay: KINOMEscan; assay type: binding
T24 construct: purchased DiscoverX (KINOMEscan platform)

hMELK = biological target: T25, hMELK (Homo sapiens, UniProt Q14680); assay: KINOMEscan; assay type: binding
T25 construct: purchased DiscoverX

hFLT3(K663Q) = biological target: T26, hFLT3(K663Q) (Homo sapiens, UniProt P36888, K663Q); assay: KINOMEscan; assay type: binding
T26 construct: purchased DiscoverX

hHIPK4 = biological target: T27, hHIPK4 (Homo sapiens, UniProt Q8NE63); assay: KINOMEscan; assay type: binding
T27 construct: purchased DiscoverX

hLATS2 = biological target: T28, hLATS2 (Homo sapiens, UniProt Q9NRM7); assay: KINOMEscan; assay type: binding
T28 construct: purchased DiscoverX (KINOMEscan platform)

hMET = biological target: T29, hMET (Homo sapiens, UniProt P08581); assay: KINOMEscan; assay type: binding
T29 construct: purchased DiscoverX

hJNK1 = biological target: T30, hJNK1 (Homo sapiens, UniProt P45983); assay: KINOMEscan; assay type: binding
T30 construct: purchased DiscoverX (KINOMEscan panel)

hMEK6 = biological target: T31, hMEK6 (Homo sapiens, UniProt P52564); assay: KINOMEscan; assay type: binding
T31 construct: purchased DiscoverX

hDMPK = biological target: T32, hDMPK (Homo sapiens, UniProt Q09013); assay: KINOMEscan; assay type: binding
T32 construct: purchased DiscoverX (KINOMEscan platform)

T15 sequence (Q9UQM7 whole entry): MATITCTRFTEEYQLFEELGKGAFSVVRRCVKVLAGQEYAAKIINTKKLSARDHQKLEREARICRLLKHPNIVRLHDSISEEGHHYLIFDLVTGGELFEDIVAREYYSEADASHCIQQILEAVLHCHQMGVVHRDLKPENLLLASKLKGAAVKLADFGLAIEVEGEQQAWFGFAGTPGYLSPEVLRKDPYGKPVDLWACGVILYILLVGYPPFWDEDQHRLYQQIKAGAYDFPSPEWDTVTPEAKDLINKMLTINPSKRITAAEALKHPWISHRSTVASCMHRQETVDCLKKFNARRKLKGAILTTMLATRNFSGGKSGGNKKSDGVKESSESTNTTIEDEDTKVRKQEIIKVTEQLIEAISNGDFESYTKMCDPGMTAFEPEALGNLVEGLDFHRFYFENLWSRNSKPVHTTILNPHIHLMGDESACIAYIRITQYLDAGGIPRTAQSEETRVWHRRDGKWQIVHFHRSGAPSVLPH
T30 sequence (P45983 whole entry): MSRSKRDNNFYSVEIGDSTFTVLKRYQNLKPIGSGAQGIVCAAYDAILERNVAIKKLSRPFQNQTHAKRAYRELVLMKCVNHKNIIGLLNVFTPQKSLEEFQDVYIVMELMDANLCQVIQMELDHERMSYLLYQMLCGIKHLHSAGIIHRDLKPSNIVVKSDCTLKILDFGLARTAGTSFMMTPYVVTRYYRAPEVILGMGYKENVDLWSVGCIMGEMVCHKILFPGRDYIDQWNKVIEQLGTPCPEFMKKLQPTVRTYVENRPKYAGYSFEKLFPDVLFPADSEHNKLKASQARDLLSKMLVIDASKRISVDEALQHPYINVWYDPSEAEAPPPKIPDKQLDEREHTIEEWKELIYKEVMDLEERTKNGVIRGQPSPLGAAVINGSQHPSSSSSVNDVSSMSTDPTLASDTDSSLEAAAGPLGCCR
T9 sequence (P45985 whole entry): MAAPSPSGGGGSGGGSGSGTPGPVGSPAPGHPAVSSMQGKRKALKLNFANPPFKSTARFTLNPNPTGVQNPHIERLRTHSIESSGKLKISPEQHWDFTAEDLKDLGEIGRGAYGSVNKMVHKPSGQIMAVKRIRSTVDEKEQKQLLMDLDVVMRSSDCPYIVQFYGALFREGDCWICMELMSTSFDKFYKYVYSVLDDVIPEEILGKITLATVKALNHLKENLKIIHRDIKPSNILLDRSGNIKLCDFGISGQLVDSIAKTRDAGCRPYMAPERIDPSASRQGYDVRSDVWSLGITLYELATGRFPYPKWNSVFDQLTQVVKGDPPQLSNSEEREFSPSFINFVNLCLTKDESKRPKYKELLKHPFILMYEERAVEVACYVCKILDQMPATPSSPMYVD
T13 sequence (P00519 whole entry): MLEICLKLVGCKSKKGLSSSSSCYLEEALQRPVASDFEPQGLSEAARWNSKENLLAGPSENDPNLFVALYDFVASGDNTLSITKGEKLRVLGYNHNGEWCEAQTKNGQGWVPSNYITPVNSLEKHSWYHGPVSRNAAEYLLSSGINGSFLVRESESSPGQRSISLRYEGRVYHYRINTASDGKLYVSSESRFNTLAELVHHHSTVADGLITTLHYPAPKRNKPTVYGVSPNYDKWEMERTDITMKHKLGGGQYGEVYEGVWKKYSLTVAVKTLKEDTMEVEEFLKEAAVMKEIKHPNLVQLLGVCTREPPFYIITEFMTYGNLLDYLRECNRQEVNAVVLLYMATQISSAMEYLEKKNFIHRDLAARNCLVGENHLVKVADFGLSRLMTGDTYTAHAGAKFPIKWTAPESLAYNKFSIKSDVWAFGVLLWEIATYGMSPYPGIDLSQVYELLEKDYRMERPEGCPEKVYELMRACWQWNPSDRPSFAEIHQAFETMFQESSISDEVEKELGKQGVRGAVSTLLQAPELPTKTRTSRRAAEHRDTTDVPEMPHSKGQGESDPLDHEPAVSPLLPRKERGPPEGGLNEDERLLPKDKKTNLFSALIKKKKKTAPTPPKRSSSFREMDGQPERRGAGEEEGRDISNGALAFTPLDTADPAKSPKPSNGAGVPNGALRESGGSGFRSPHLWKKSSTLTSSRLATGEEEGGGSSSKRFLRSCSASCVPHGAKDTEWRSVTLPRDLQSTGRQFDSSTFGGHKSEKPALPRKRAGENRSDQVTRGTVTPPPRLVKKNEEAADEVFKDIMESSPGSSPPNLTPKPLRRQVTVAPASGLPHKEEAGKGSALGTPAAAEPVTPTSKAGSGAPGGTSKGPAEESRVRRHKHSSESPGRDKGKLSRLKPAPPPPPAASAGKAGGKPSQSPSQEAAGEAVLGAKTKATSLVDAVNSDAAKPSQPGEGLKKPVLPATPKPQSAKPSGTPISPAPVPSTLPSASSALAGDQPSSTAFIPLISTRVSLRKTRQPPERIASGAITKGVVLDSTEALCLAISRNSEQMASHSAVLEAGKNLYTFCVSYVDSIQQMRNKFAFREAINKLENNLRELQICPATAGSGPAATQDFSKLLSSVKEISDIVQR
T29 sequence (P08581 25-1390): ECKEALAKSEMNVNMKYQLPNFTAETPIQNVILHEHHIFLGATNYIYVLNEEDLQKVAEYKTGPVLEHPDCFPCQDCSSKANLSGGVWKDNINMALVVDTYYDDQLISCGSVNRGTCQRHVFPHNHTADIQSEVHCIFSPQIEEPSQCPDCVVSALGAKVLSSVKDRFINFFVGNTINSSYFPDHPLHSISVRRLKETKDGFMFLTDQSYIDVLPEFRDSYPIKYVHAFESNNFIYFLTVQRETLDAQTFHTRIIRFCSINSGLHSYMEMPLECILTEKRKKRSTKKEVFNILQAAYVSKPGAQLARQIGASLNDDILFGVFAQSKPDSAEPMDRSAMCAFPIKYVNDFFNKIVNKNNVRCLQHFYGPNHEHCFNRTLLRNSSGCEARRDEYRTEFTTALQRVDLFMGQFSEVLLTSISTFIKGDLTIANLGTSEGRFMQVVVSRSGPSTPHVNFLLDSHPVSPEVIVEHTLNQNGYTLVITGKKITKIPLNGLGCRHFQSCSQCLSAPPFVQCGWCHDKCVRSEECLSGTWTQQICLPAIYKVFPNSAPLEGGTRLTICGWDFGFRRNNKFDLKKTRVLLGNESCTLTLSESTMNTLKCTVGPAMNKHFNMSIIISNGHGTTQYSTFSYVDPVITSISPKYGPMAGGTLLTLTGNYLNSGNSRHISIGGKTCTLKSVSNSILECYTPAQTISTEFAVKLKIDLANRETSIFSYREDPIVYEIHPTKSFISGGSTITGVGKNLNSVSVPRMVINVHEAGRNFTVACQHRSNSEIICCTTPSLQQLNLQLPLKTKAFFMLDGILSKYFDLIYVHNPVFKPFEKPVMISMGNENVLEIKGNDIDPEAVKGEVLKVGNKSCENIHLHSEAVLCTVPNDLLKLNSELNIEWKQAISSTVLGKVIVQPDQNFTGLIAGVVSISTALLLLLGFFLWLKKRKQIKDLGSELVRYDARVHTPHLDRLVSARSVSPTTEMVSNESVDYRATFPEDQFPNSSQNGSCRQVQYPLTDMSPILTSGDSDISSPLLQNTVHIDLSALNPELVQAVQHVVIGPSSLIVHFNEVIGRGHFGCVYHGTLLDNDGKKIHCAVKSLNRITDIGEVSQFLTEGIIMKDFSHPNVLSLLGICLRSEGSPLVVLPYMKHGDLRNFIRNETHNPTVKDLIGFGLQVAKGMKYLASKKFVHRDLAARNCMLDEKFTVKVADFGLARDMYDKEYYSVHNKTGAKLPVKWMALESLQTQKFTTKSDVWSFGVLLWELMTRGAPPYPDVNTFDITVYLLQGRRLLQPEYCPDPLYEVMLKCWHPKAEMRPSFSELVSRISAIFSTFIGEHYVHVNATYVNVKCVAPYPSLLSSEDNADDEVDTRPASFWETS
T8 sequence (Q13557 whole entry): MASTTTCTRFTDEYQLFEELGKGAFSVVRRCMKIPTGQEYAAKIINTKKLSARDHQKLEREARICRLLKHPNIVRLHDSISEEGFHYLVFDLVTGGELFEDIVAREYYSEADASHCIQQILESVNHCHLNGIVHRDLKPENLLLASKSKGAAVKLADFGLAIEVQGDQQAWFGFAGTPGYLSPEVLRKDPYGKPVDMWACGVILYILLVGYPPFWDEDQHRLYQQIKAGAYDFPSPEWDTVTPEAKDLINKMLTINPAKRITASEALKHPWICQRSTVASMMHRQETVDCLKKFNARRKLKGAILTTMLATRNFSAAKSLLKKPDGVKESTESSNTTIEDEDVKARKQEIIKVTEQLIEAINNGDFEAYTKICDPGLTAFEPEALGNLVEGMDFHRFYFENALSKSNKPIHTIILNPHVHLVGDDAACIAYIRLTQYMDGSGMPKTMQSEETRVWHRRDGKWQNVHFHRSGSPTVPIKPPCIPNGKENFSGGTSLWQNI
T10 sequence (P31751 whole entry): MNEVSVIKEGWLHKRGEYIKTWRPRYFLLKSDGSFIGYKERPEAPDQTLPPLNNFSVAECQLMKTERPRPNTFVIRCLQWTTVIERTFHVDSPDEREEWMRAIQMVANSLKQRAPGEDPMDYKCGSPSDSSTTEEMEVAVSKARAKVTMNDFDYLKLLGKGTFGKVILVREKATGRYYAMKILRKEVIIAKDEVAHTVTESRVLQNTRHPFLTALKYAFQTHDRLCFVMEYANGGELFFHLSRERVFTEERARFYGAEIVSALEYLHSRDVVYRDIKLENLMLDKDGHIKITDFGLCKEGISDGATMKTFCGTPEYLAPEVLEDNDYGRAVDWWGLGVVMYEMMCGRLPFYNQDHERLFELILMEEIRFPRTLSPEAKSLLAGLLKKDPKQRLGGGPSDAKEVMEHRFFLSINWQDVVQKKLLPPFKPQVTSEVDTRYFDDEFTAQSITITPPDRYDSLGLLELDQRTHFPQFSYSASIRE
T23 sequence (P00519 whole entry F317L): as the sequence (P00519 whole entry) above, with F317L counted along it

`Cc1cn(CCN2CCN(c3ccccc3-c3cc(C#N)cc(C(=O)NCCCN4CCCC4)c3)CC2)c2ccccc12` [LLY-507, 3-cyano-5-{2-[4-[2-(3-methylindol-1-yl)ethyl]piperazin-1-yl]-phenyl}-N-[(3-pyrrolidin-1-yl)propyl]benzamide] was tested, and the inhibition at 10 µM (hADORA3) was -38.3%, the pIC50 (hTNK1) was under 4.70 and the pIC50 (hFGFR4) was under 4.70. The pIC50 (hSNARK) was under 4.70, the pIC50 (hGCN2(Kin.Dom.2,S808G)) was under 4.70 and the pIC50 (hSTK33) was under 4.70. The “% Effect, Stimulation” value (hADRα1A) was -1.9%, the pIC50 (hCAMK2D) was under 4.70 and the pIC50 (hMEK4) was under 4.70. It also gave a pIC50 (hAKT2) of under 4.70, a pIC50 (hLTK) of under 4.70 and a pIC50 (hFGFR1) of under 4.70. It also gave a pIC50 (hABL1-p) of under 4.70, a pIC50 (hEPHB2) of under 4.70 and a pIC50 (hCAMK2A) of under 4.70. For the same compound, the pIC50 (hACVR1B) was under 4.70, the pIC50 (hTAOK3) was under 4.70 and the pIC50 (hADCK3) was under 4.70. It also gave a pIC50 (hITK) of under 4.70, a pIC50 (hDCAMKL3) of under 4.70 and a pIC50 (hBLK) of under 4.70. The pIC50 (hERN1) was under 4.70, the pIC50 (hABL1(pF317L)) was under 4.70 and the pIC50 (hRET(V804L)) was under 4.70. It also gave a pIC50 (hMELK) of under 4.70, a pIC50 (hFLT3(K663Q)) of under 4.70 and a pIC50 (hHIPK4) of under 4.70. The pIC50 (hLATS2) was under 4.70, the pIC50 (hMET) was under 4.70 and the pIC50 (hJNK1) was under 4.70. For the same compound, the pIC50 (hMEK6) was under 4.70 and the pIC50 (hDMPK) was under 4.70.
